# Test results taken from patent US20110184011A1, “Compounds” (SELCIA LIMITED, priority 2008, published 2011).
# pIC50: −log10 of the molar value.
# Assays:
# [1] = tested on: IL-1β stimulated IL-8 secretion in human umbilical vein endothelial cells (HUVECs); assay: IL-1β stimulated IL-8 secretion assay in HUVEC cells (ELISA); type: cell-based; details: 0.5 ng/ml IL-1β; for inhibition at 1 µM: 1 μM compound, read-out: % Inhib at 1 μM; for inhibition at 1 µM / inhibition at 10 µM: IL-8 secretion; for inhibition at 10 µM: 10 μM compound, read-out: % Inhib at 10 μM; for pIC50: 24 h, IL-8 ELISA
# Description: Anti-inflammatory screening was established in human umbilical vein endothelial cells (HUVECs) to screen the test compounds for their ability to inhibit IL-1β stimulated IL-8 secretion from these cells. The level of secreted IL-8 in the HUVEC media was detected using a Quantikine™ Sandwich Enzyme-Linked Immunosorbent Assay (ELISA) from R&D Systems.
# Cells and media were obtained from Cascade Biologics™ via Invitrogen. HUVECs were seeded in sterile 96-well tissue culture treated plates (0.1 ml per well, containing 2,400 cells; 8000 cells/cm^2). The seeded plates were incubated in a humidified incubator at 37 C/5% CO2. After 24 h, the media was replaced with fresh media (80 μl). The test compounds were serially diluted from 10 mM DMSO stocks with media to obtain dilutions 10× the final concentration. The compounds (10 μl) were added to the plates 30 min prior to the addition of 10 μl of 5 ng/ml stimulant IL-1β (final concentration 0.5 ng/ml). After incubating for 24 h, the plates were centrifuged at 200×g for 5 min (room temperature) and the media from each well transferred to a 96-well storage plate. Basal samples were assayed neat, but media from IL-1β stimulated cells was diluted in the calibrator diluent accompanying the IL-8 ELISA kit. The ELISA was performed according to the manufacturer's instructions.
# A dose of 0.5 ng/ml IL-1β was chosen as a submaximal dose to observe the inhibition of IL-8 secretion with the test compounds.
# Test compounds were initially screened at 10^−5M and 10^−6M for their ability to inhibit IL-1β stimulated IL-8 secretion (Table 1).
# [2] = tested on: IL-1β stimulated IL-6 secretion in HUVECs; assay: IL-1β stimulated IL-6 secretion in HUVECs (ELISA); type: cell-based, human; details: increasing doses of compound
# Description: (§1) The HUVEC IL1β secretion assay was performed using a 24-well plate format similar to that described for IL-8 secretion above (0.5 ml per well containing 16,000 cells; 8000 cells/cm^2). Media was collected from untreated cells (basal) and cells treated with either 0.5 ng/ml IL-1β only, 10^−5M compound (2) only or IL-1β stimulated plus compound (2). Media from 2 wells were pooled for each condition.
# (§2) Using the results of the protein array, the effect of compound (2) on the secretion of five other cytokines stimulated by IL-1β was also measured in HUVECs. These included: GROα, MCP-1, GM-CSF, sICAM-1 and IL-6. The HUVECs were seeded in sterile 24-well tissue culture treated plates (as described above). The cells were treated with increasing doses of compound (2) prior to stimulating with IL-1β as described above. All cytokines were measured using the appropriate Quantikine® Sandwich ELISA from R&D Systems according to the manufacturer's instructions.
# [3] = tested on: IL-1β stimulated MCP-1 secretion in HUVECs; assay: IL-1β stimulated MCP-1 secretion in HUVECs (ELISA); type: cell-based, human; details: increasing concentration of compound
# Description: as §1, §2
# [4] = tested on: IL-1β stimulated IL-8 secretion in human umbilical vein endothelial cells (HUVECs); assay: IL-1β stimulated IL-8 secretion assay in HUVEC cells (ELISA); type: cell-based; details: 24-well format, increasing doses
# [5] = tested on: BALB/c mice, oxazolone-induced ear edema; assay: Mouse allergic contact dermatitis model induced by oxazolone, topical application, ear swelling; type: in vivo; details: for effect on inflammation in mouse allergic contact dermatitis model: topical application, 0.3-3 mg/ear x2, result in words
# Description: BALB/c derived male mice, weighing 23±2 g were housed in individually ventilated cages racks (IVC Racks, 36 Mini Isolator systems) throughout the experiment. Five mice per group were kept in a cage (in cm, 26.7 length×20.7 width×14.0 height) and maintained under controlled temperature (21-23° C.) and humidity (50%-70%) with 12-hour light/dark cycles. The animals were given free access to sterilized lab chow and reverse osmosis (RO) water ad libitum. All aspects of this work, i.e. housing, experimentation and disposal of animals, are performed in general accordance with the Guide for the Care and Use of Laboratory Animals (National Academy Press, Washington, D.C., 1996).
# Compound (2) was prepared as 150, 50 and 15 mg/ml in vehicle, acetone:ethanol/1:1. The preshaven abdomens of five groups of 5 BALB/c test mice were sensitized by application of 100 μL of 1.5% oxazolone solution dissolved in acetone. Seven days after the initial sensitization, test substance (0.3, 1 and 3 mg in 20 μl/ear) and vehicle (acetone:ethanol/1:1, 20 μL/ear) were each administered topically to the anterior and posterior surfaces of the right ear 30 minutes before and 15 minutes after challenge by the second application of oxazolone (1% in acetone, 20 μL/ear). As a positive control, dexamethasone (0.1 mg/ear) was administered topically using the same treatment regime as the test compound. Twenty-four hours after the second application of oxazolone, the ear thickness of each mouse was measured with a Dyer model micrometer gauge. Ear edema was calculated by subtracting the thickness of the left ear (normal control) from the right ear (treated ear). Percent inhibition was calculated according to the formula: [(Ic−It)/Ic]×100%, where Ic and It refer to increase of ear thickness (mm) in control and treated mice, respectively. A 30 percent or more (30%) inhibition in ear swelling relative to the vehicle control is considered significant and indicates possible anti-inflammatory activity.
# [6] = Solubility of the topical formulation in vehicle acetone:ethanol/1:1; type: physicochemical; details: 150, 50 and 15 mg/ml in acetone:ethanol/1:1
# [7] = tested on: IL-1β stimulated GROα secretion in HUVECs; assay: IL-1β stimulated GROα secretion in HUVECs (ELISA); type: cell-based, human; details: increasing concentration of compound
# Description: as §1, §2
# [8] = tested on: IL-1β stimulated GM-CSF secretion in HUVECs; assay: IL-1β stimulated GM-CSF secretion in HUVECs (ELISA); type: cell-based, human; details: increasing doses of compound
# Description: as §1, §2
Structure (SMILES),inhibition at 1 µM [1],inhibition at 10 µM [1],pIC50 [1],also measured
"NC(=O)c1cc(-c2cccnc2)n2c1CCCC2 [Compound 1, 3-pyridin-3-yl-5,6,7,8-tetrahydro-indolizine-1-carboxamide]",31.8%,34.7%,,
"NC(=O)c1c(Cl)c(-c2cccnc2)n2c1CCCC2 [Compound 2, 2-Chloro-3-pyridin-3-yl-5,6,7,8-tetrahydro-indolizine-1-carboxamide]",49.4%,59.5%,6.46,"effect on IL-1β stimulated IL-6 levels [2]: increased IL-6 levels further; effect on IL-1β stimulated MCP-1 [3]: little effect; effect on IL-1β stimulated IL-8 secretion [4]: inhibited IL-8 and GM-CSF to a similar extent; inhibition of ear swelling relative to vehicle control ([5]; 0.3 mg/ear x2 topical, 30 min before and 15 min after oxazolone challenge, measured at 24 h): 25%; inhibition of ear swelling relative to vehicle control ([5]; 1 mg/ear x2 topical, 30 min before and 15 min after oxazolone challenge, measured at 24 h): 29%; inhibition of ear swelling relative to vehicle control ([5]; 3 mg/ear x2 topical, 30 min before and 15 min after oxazolone challenge, measured at 24 h): 40%; effect on inflammation in mouse allergic contact dermatitis model ([5]; listed as compound 2): not as potent as dexamethasone; effect on inflammation in mouse allergic contact dermatitis model ([5]; listed as compound (2)): dose dependently inhibited inflammation; solubility of formulation [6]: not completely soluble; reduction of IL-1β stimulated GROα levels [7]: ~25%; effect on IL-1β stimulated GM-CSF levels [8]: dose dependently decreased"
"Cc1ccncc1-c1cc(C#N)c2n1CCCC2 [Compound 3, 3-(4-Methyl-pyridin-3-yl)-5,6,7,8-tetrahydro-indolizine-1-carbonitrile]",34.4%,35%,,
"Cc1ccncc1-c1cc(C(N)=O)c2n1CCCC2 [Compound 4, 3-(4-Methyl-pyridin-3-yl)-5,6,7,8-tetrahydro-indolizine-1-carboxylic acid amide]",15.9%,30.8%,,
"NC(=O)c1c(Cl)c(-c2cccnc2)n2c1C(O)CCC2 (stereo not shown) [Compound 5, 2-Chloro-8-hydroxy-3-pyridin-3-yl-5,6,7,8-tetrahydro-indolizine-1-carboxylic acid amide]",29%,52.4%,6.12,
"N#Cc1c(Cl)c(-c2cccnc2)n2c1C(O)CCC2 (stereo not shown) [Compound 6, 2-Chloro-8-hydroxy-3-pyridin-3-yl-5,6,7,8-tetrahydro-indolizine-1-carbonitrile]",52.2%,21.8%,,
"COC1CCCn2c(-c3cccnc3)c(Cl)c(C(N)=O)c21 (stereo not shown) [Compound 7, 2-Chloro-8-methoxy-3-pyridin-3-yl-5,6,7,8-tetrahydro-indolizine-1-carboxylic acid amide]",1.4%,32.1%,,
"Cc1ccncc1-c1c(Cl)c(C#N)c2n1CCCC2 [Compound 8, 2-Chloro-3-(4-Methyl-pyridin-3-yl)-5,6,7,8-tetrahydro-indolizine-1-carbonitrile]",5.5%,39.6%,,
"Cc1ccncc1-c1c(Cl)c(C(N)=O)c2n1CCCC2 [Compound 9, 2-Chloro-3-(4-methyl-pyridin-3-yl)-5,6,7,8-tetrahydro-indolizine-1-carboxylic acid amide]",42.2%,49.6%,6.29,
"N#Cc1c(Cl)c(-c2cccnc2)n2c1C(=O)C(Cl)(Cl)CC2 [Compound 10, 2,7,7-Trichloro-8-oxo-3-pyridin-3-yl-5,6,7,8-tetrahydro-indolizine-1-carbonitrile]",18.8%,35.7%,,
"NC(=O)c1c(Cl)c(-c2cccnc2)n2c1C(=O)CCC2 [Compound 11, 2-Chloro-8-oxo-3-pyridin-3-yl-5,6,7,8-tetrahydro-indolizine-1-carboxylic acid amide]",32.9%,31.7%,,
"NC(=O)c1c(Cl)c(-c2cccnc2)n2c1C=CCC2 [Compound 12, 2-Chloro-3-pyridin-3-yl-5,6-dihydro-indolizine-1-carboxylic acid amide]",22.7%,52.7%,5.80,
"C[C@@H]1C[C@H]2[C@@H]3CCC4=CC(=O)C=C[C@]4(C)[C@@]3(F)[C@@H](O)C[C@]2(C)[C@@]1(O)C(=O)CO [dexamethasone, reference compound]",,,,"inhibition of ear swelling relative to vehicle control ([5]; 0.1 mg/ear topical, same regime, positive control): 72%"
